# Experimental data as given in US20260193254A1, “2-OXOQUINAZOLINE CRYSTALLINE FORMS” (IDEAYA Biosciences, Inc., priority 2022, published 2026).
# Legend:
# Assay type in all cases: physicochemical
# [1] = Intrinsic dissolution rate (IDR) evaluation in FaSSIF; details: FaSSIF at 37° C.
# Procedure: Only one surface of the pellet was exposed (surface area=0.50 cm^2) to 900 mL FaSSIF, the dissolution medium. Temperature of chamber medium was set as 37±0.5° C. Shaft rotation as 100 rpm and sampling time points as 2 min, 5 min, 10 min, 15 min, 20 min, 25 min, 30 min, 35 min, 40 min, 50 min, 60 min, and 120 min. 2 mL sample solution was withdrawn at each time point and centrifuged at 14,000 rpm for 5 min to isolate supernatant. Then concentration of the supernatant was analyzed by HPLC. After 120 min, XRPD of disc surface was measured.
# [2] = Equilibrium solubility in SGF (pH 2.0), 0.1 N HCl (pH 1.2) and phosphate buffer (pH 8.0); details: for Solubility: target concentration 1 mg/mL, HPLC method 2
# Procedure: (§1) Solid part and liquid part were separated by filtration. Solubility was measured by HPLC. Solid part (wet cake) was investigated by XRPD.
# [3] = Bulk stability of crystalline forms; details: for Purity, Bulk (HPLC): Solid state
# Source text: (§2) Solids obtained after bulk stability study were characterized by XRPD and HPLC.
# [4] = Bulk stability of crystalline forms; design: key: Color A: All No change of color; details: Solid state
# Source text: as §2
# [5] = Grinding simulation experiments - wet grinding (granulation)
# Procedure: Water or ethanol was added drop wise to about 20 mg of Form A, Form D, or Form T until solid was wetted sufficiently. Vortex was applied between each addition. Samples were dried under ambient condition for 10 min. Potential form transition and degree of crystallinity were evaluated by XRPD.
# [6] = Variable humidity and temperature XRPD experiments
# [7] = Hygroscopicity: water sorption and desorption by dynamic vapor sorption (DVS)
# Procedure: In some embodiments, the crystalline form described herein is further characterized by is further characterized by a dynamic vapor sorption (DVS) profile. In some embodiments, a DVS is recorded according to the method as described herein with a cycle of 40-0-95-0-40% RH at 25° C.
# Water sorption and desorption behaviors of Form A, Form C, Form D, and Form T were investigated by DVS at 25° C. with a cycle of 40-0-95-0-40% RH. Dm/dt was 0.002. Minimum equilibration time was 60 min. Maximum equilibration time was 360 min. XRPD was measured after DVS test to determine potential form change.
# Water activity study = details: acetonitrile/water system, 5° C. and 25° C.
# Source text: These solvent mixtures were saturated with the compound of Formula (I) before addition of the polymorph seeds. […] These solvent mixtures were saturated with the compound of Formula (I) before addition of the polymorph seeds. Obtained suspension was filtered. Solid part (wet cake) was investigated by XRPD.
# [8] = Equilibrium solubility in FeSSIF and FaSSIF; details: for solubility at 24 h: 37 °C, thermodynamic from solid, target concentration 1 mg/mL, HPLC method 1 or 2 (footnote); for impurity in solubility sample: no unit printed for impurity (column head mg/mL)
# Procedure: as §1
# [9] = pH 1.2 (0.1N HCl), 37° C., 24 hours
# [10] = pH 8 (phosphate buffer), 37° C., 24 hours
# [11] = 25° C./92% RH, open container, 1 week
# [12] = 25° C./92% RH, open container, 2 weeks
# [13] = 40° C./75% RH, open container, 1 week
# [14] = 40° C./75% RH, open container, 2 weeks
# [15] = 60° C., tight container, 1 week
# [16] = 60° C., tight container, 2 weeks
# [17] = FaSSIF, pH 6.5, 37° C., 24 hours
# [18] = FeSSIF, pH 5.0, 37° C., 24 hours
smiles,measurement,setting,value
"Nc1nc(=O)n(-c2ccccc2Cl)c2nc(C(F)(F)F)ccc12 [Form A, 4-Amino-1-(2-chlorophenyl)-7-(trifluoromethyl)pyrido[2,3-d]pyrimidin-2(1H)-one]",XRPD after IDR,[1]; disc surface after 120 min,No form change
same,Concentration detected during IDR test (Comments),"[1]; for Form V and Form A remains same during the whole process, LOQ for Form T and amorphous form",(0.006 mg/mL)
same,form obtained from the solubility study in 0.1 N HCl solution,[2]; 0.1 N HCl,Form R
same,XRPD pattern after the solubility test in 0.1 N HCl and SGF,"[2]; 37° C., 24 hours",two new patterns were obtained
same,form obtained from the solubility study in simulated gastric fluid,"[2]; SGF, pH 2.0",Form Q
same,XRPD of solid after solubility test,"[2]; SGF, pH 2.0, 37° C., 24 hours",Form Q
same,final pH,"[2]; SGF, pH 2.0, 37° C., 24 hours",2.2
same,Solubility,"[2]; SGF, pH 2.0, 37° C., 24 hours",60 µg/mL
same,XRPD of solid after solubility test,[2]; [9],Form R
same,final pH,[2]; [9],1.3
same,Solubility,[2]; [9],100 µg/mL
same,XRPD of solid after solubility test,[2]; [10],Form A
same,final pH,[2]; [10],8.0
same,impurity in solubility sample,[2]; [10],no impurity
same,Solubility,[2]; [10],30 µg/mL
same,"Purity, Bulk (HPLC)",[3]; [11],99.0%
same,"Purity, Bulk (HPLC)",[3]; [12],99.2%
same,"Purity, Bulk (HPLC)",[3]; [13],99.0%
same,"Purity, Bulk (HPLC)",[3]; [14],99.1%
same,"Purity, Bulk (HPLC)",[3]; [15],99.1%
same,"Purity, Bulk (HPLC)",[3]; [16],99.2%
same,Initial purity,"[3]; before stress, HPLC",99.0%
same,chemical stability and physical stability (bulk stability),"[3]; stressed under 25° C./92 RH, 40% C/75% RH and 60° C., XRPD and HPLC",good chemical stability and physical stability
same,Color,[4]; [11],A
same,Color,[4]; [12],A
same,Color,[4]; [13],A
same,Color,[4]; [14],A
same,Color,[4]; [15],A
same,Color,[4]; [16],A
same,XRPD after wet grinding,[5]; Ethanol,substantially amorphous
same,tolerance to granulation with ethanol or water,"[5]; wet grinding, XRPD",poor tolerance
same,XRPD (XRPD method 2),[6]; VT14 25° C./37% RH (initial),Form A
same,XRPD (XRPD method 2),[6]; VT15 50° C./37% RH (10 min),Form A
same,XRPD (XRPD method 2),[6]; VT17 250° C./37% RH (10 min),Form U
same,hygroscopicity,"[7]; DVS at 25° C., cycle 40-0-95-0-40% RH",slightly hygroscopic
same,water uptake,"[7]; DVS, in 95% RH at 25° C.",0.7%
same,form change after the DVS test,[7]; XRPD after DVS,No form change
same,"form obtained in water activity experiments (relative stability of Forms A, C, D and E)",Water activity study,highly crystalline Form A was obtained in all the solvent mixtures
same,solubility at 24 h,"[8]; FaSSIF, pH 6.5, fassif, pH 6.5, 37° C.",90 µg/mL
same,XRPD of solid after solubility test,[8]; [17],Form A + NaCl
same,final pH,[8]; [17],6.5
same,impurity in solubility sample,[8]; [17],no impurity
same,solubility at 24 h,"[8]; FeSSIF, pH 5, fessif, pH 5.0, 37° C.",240 µg/mL
same,final pH,[8]; [18],5.0
same,impurity in solubility sample,[8]; [18],no impurity
